Source: US8974819B2, “Sustained-release chitosan capsules comprising chitosan and phytic acid” (priority 2007, dated 2015)

What was measured:
[1] = tested on: diabetic rats; assay: Blood glucose lowering effect by dosage for 4 hours in diabetic rats; assay type: in vivo, Male Sprague-Dawley (SD) rats; settings: diabetic SD rats, subcutaneous injection (PC, positive control)
[2] = tested on: diabetic mouse; assay: Blood glucose level after administration to diabetic mice; assay type: in vivo, Balb-c strain male mice; settings: subcutaneous injection, 1 IU/kg
Procedure: Six-week old Balb-c strain male mice were used. Streptozotocin was dissolved in a 0.1 mM sodium chloride buffer at a concentration of 30 mg/mL, followed by subcutaneously injecting into the […] at a dosage of 65 mg/kg so as to induce diabetes. The male mice showing a blood glucose level of 470±40 mg/dL over two consecutive days were selected and the experiment was performed. The diabetic mice were starved for 12 hours before the experiment was started.
After the capsules showing the most preferable result were selected from Experimental Example 7 and Comparative Experimental Example 5, respectively, each capsule was orally administered to the diabetic mouse established in Preparative Example 4 and a blood glucose level was measured. […]
AAC (area above the blood glucose level-time curve) is to be numerically expressed the area above the blood glucose level-time curve by using a linear trapezoidal rule. […] F is relative bioavailability of a drug, which is calculated by multiplying the AAC value in case of the oral administration of insulin by the amount of insulin subcutaneously injected, dividing the resulting value by the AAC value in case of the subcutaneous injection of insulin, and dividing the resulting value by the amount of insulin orally administered. […]

In the case of Insulin, the blood glucose level [1] is reported as “most rapidly decreased” and the blood glucose level [2] is reported as “rapidly decreased”.
